Key:
BRSK2 = biological target: T1, BRSK2 (Homo sapiens, UniProt Q8IWQ3); conditions: 1 μM; Run 1, Run 2
T1 sequence (Q8IWQ3 1-736): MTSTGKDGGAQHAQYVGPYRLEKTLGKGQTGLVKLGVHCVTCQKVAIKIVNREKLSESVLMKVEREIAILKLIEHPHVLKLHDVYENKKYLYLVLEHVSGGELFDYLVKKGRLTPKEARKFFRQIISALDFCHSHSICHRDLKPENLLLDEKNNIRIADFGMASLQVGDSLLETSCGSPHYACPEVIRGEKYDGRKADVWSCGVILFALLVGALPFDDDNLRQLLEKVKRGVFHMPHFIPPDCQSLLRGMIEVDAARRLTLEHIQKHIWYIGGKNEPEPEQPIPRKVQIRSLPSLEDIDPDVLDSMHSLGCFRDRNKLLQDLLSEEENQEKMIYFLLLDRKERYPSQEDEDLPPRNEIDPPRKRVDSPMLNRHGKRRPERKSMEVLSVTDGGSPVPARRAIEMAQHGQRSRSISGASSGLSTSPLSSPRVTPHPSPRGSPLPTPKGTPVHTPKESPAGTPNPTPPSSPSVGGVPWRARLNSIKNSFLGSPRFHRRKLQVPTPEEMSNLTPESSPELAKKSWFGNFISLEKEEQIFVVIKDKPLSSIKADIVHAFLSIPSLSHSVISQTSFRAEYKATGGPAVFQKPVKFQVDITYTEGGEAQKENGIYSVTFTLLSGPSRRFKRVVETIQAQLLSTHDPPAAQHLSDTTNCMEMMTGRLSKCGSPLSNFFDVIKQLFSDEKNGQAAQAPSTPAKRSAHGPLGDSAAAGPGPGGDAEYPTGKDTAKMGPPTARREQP

FGR = FGR (Homo sapiens, UniProt P09769); conditions: 1 μM; Run 1, Run 2
Sequence of FGR (P09769 whole entry): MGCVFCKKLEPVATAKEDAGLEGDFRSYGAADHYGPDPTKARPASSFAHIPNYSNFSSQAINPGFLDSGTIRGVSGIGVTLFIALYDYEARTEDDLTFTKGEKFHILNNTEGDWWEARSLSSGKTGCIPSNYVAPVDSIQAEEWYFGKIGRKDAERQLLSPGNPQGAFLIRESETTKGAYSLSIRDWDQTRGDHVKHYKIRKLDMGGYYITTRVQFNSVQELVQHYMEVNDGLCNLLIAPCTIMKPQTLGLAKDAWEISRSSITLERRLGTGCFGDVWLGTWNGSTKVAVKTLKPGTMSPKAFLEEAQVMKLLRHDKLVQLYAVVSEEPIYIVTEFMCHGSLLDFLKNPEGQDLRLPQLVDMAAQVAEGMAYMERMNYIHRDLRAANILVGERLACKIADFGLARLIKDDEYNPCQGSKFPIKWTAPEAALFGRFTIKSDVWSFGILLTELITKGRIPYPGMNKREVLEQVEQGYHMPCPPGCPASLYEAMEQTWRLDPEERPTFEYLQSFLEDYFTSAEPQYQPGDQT

JAK2 = JAK2 (Homo sapiens, UniProt O60674); conditions: 1 μM; Run 1, Run 2
Sequence of JAK2 (O60674 whole entry): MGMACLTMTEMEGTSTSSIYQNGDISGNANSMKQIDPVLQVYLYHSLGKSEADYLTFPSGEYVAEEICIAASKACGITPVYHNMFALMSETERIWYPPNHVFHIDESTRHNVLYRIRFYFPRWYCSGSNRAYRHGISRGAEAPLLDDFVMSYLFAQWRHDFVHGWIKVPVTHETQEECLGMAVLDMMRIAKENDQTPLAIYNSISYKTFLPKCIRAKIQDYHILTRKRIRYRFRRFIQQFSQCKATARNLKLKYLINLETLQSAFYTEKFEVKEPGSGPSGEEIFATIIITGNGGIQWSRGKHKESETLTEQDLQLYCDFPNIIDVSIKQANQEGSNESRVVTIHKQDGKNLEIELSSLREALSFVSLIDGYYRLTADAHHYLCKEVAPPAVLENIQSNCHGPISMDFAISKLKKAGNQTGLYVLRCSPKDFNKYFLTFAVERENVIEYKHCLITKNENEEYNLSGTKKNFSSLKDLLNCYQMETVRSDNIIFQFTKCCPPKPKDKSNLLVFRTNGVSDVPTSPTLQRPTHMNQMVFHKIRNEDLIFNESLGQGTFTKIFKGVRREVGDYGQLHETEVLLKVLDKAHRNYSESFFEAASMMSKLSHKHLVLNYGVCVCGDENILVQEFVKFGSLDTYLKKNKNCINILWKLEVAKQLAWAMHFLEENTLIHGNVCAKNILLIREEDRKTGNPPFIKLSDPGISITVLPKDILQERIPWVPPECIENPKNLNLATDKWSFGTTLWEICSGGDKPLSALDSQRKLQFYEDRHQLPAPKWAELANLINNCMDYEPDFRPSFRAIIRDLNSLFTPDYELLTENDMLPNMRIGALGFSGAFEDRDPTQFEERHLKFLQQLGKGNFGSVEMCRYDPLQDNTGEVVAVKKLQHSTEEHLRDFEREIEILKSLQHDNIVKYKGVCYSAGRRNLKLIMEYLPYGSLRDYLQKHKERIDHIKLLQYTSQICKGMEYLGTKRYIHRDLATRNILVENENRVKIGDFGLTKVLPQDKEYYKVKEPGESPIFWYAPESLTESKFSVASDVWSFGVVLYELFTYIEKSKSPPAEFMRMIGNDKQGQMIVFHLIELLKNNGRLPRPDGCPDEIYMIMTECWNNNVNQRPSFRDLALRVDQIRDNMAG

P38b/MAPK11 = P38b/MAPK11 (Homo sapiens, UniProt Q15759); conditions: 1 μM; Run 1, Run 2
Sequence of P38b/MAPK11 (Q15759 whole entry): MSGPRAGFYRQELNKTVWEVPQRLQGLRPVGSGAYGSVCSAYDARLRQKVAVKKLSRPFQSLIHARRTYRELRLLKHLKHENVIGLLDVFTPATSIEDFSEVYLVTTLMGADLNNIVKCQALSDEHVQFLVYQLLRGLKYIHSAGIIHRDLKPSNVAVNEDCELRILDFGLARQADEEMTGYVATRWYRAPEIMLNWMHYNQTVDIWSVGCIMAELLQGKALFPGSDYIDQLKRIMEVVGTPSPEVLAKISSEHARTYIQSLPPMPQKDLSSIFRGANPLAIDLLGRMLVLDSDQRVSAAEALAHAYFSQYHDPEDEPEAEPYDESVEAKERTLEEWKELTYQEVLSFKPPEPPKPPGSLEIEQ

PLK3 = PLK3 (Homo sapiens, UniProt Q9H4B4); conditions: 1 μM; Run 1, Run 2
Sequence of PLK3 (Q9H4B4 whole entry): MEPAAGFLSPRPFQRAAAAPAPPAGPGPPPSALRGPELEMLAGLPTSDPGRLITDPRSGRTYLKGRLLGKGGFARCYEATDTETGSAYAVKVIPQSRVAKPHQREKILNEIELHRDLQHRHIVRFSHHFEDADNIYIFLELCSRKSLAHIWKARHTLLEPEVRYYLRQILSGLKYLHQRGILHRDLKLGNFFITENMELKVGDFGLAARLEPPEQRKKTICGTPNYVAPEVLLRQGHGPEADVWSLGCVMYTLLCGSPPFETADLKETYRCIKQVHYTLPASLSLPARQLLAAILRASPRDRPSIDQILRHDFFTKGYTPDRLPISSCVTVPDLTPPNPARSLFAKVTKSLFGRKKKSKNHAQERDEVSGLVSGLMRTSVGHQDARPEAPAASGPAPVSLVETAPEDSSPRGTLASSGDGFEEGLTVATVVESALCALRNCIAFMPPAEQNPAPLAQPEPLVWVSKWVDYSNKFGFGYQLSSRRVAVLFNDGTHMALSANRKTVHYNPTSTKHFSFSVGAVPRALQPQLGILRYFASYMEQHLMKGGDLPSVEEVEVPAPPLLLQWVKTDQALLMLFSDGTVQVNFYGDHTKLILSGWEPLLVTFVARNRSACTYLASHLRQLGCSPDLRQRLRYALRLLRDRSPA

SSTK/TSSK6 = SSTK/TSSK6 (Homo sapiens, UniProt Q9BXA6); conditions: 1 μM; Run 1, Run 2
Sequence of SSTK/TSSK6 (Q9BXA6 whole entry): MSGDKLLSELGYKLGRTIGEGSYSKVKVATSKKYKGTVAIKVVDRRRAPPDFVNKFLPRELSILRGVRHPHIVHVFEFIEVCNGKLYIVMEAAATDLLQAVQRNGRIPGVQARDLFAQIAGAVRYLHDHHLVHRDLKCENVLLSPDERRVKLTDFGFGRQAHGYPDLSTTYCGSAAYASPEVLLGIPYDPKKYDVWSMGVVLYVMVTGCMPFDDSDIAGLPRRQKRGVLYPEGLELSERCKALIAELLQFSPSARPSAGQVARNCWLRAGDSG

ABL1 = ABL1 (Homo sapiens, UniProt P00519); experiment: biochemical; conditions: read-out: % enzyme activity, 1 μM; Run 1, Run 2
Sequence of ABL1 (P00519 whole entry): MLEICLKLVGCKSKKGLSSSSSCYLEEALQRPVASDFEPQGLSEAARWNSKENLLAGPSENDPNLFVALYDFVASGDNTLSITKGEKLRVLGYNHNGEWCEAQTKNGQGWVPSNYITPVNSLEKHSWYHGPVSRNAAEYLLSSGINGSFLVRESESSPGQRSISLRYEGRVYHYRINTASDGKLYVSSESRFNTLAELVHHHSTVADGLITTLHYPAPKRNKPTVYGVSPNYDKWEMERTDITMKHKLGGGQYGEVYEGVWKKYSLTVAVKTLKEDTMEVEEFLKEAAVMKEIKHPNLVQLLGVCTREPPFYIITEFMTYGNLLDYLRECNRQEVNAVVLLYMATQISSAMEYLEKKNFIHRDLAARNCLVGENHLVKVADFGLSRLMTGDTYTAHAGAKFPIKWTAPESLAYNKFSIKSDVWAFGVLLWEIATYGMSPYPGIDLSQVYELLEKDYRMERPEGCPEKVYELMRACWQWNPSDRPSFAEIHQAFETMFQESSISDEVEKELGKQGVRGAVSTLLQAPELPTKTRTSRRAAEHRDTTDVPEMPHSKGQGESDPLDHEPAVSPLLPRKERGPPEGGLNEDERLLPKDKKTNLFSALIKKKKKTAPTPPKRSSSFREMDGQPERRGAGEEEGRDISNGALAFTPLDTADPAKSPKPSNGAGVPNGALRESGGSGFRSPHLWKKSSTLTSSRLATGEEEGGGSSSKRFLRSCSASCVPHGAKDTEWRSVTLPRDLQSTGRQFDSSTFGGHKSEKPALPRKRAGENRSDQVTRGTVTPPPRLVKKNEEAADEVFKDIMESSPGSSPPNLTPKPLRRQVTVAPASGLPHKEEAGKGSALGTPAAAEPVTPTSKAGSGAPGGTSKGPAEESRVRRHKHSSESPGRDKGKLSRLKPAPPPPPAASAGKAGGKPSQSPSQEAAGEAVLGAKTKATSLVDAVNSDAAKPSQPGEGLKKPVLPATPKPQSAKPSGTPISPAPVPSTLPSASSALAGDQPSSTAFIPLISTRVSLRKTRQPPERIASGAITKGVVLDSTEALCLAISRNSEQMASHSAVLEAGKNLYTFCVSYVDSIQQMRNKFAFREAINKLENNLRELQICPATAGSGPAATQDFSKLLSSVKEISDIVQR

CDK2/cyclin O = CDK2/cyclin O (Homo sapiens, UniProt P24941); experiment: biochemical; conditions: read-out: % enzyme activity, 1 μM; Run 1, Run 2
DAPK2 = DAPK2 (Homo sapiens, UniProt Q9UIK4); experiment: biochemical; conditions: read-out: % enzyme activity, 1 μM; Run 1, Run 2
Sequence of DAPK2 (Q9UIK4 whole entry): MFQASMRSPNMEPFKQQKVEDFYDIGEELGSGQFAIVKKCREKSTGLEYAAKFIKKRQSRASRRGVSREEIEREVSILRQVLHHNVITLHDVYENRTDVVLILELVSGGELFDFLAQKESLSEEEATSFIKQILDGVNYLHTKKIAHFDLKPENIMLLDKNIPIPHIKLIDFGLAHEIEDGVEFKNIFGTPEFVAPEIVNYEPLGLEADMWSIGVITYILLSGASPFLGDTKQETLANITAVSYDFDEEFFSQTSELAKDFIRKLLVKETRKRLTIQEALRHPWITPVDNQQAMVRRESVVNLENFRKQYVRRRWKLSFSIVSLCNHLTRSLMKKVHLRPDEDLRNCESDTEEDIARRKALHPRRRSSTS

DDR2 = biological target: T2, DDR2 (Homo sapiens, UniProt Q16832); experiment: biochemical; conditions: read-out: % enzyme activity, 1 μM; Run 1, Run 2
T2 sequence (Q16832 22-855): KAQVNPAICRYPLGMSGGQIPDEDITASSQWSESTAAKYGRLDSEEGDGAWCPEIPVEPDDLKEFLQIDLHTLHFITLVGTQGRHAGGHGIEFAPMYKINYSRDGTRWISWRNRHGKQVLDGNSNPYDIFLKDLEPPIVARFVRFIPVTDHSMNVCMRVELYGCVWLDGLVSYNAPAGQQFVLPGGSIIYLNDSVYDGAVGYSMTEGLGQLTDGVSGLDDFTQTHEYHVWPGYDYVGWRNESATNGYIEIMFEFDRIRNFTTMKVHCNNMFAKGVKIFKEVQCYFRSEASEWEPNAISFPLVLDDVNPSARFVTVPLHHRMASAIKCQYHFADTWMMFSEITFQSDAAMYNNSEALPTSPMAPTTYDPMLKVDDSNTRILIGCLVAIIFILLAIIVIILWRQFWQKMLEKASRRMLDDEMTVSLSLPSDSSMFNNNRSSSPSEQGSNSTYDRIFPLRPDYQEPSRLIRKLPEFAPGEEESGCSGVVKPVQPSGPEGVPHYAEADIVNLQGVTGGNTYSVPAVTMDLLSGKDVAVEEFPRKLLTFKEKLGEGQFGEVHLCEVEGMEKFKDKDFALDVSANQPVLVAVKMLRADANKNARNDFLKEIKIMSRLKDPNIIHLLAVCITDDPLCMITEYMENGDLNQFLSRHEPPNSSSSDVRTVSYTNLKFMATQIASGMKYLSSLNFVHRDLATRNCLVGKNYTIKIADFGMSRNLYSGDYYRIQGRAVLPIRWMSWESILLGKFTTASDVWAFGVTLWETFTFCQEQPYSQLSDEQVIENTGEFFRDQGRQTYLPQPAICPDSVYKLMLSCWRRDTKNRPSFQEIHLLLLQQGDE

MKK4 = biological target: T3, MKK4 (Homo sapiens, UniProt P45985); experiment: biochemical; conditions: read-out: % enzyme activity, 1 μM; Run 1, Run 2
T3 sequence (P45985 1-399): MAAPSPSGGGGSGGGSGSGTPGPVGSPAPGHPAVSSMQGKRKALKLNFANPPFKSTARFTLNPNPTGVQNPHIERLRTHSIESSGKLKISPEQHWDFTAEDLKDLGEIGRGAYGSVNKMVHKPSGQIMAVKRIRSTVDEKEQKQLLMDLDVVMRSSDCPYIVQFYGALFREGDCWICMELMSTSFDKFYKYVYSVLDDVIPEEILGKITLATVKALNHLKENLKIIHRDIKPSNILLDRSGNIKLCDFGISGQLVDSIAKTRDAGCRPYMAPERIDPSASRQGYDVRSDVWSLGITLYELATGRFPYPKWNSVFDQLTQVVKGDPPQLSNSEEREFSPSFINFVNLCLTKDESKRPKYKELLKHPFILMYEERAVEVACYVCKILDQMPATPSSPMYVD

Caco-2 cells = experiment: Caco-2 permeability assay; conditions: 5 μM; for Papp_AB: Caco-2, apical to basolateral; for Papp_BA: Caco-2, basolateral to apical

Structure (SMILES) | % enzyme activity (BRSK2) | % enzyme activity (FGR) | % enzyme activity (JAK2) | % enzyme activity (P38b/MAPK11) | % enzyme activity (PLK3) | % enzyme activity (SSTK/TSSK6) | remaining activity at 1 µM (ABL1) | remaining activity at 1 µM (CDK2/cyclin O) | remaining activity at 1 µM (DAPK2) | remaining activity at 1 µM (DDR2) | remaining activity at 1 µM (MKK4) | Papp_AB (Caco-2 cells) | Papp_BA (Caco-2 cells)
COc1cc(-c2cncc(-c3ccc(N4CCN(C)CC4)cc3)c2C)cc(F)c1C(N)=O [Compound 26a, 2-Fluoro-6-methoxy-4-(4-methyl-5-(4-(4-methylpiperazin-1-yl)phenyl)pyridin-3-yl)benzamide] | 60.95% | 74.69% | 92.09% | 92.20% | 93.70% | 107.86% | 75.2% | 95.1% | 103% | 100% | 101% | 5.5 10^-6 cm/s | 16.2 10^-6 cm/s
COc1cc(-c2cncc(-c3ccc(N4C[C@@H](C)N(C)[C@@H](C)C4)cc3)c2C)cc(F)c1C(N)=O [Compound 26c, 2-Fluoro-6-methoxy-4-(4-methyl-5-(4-((3R,5S)-3,4,5-trimethylpiperazin-1-yl)phenyl)pyridin-3-yl)benzamide] | 76.84% | 86.35% | 88.17% | 95.51% | 94.47% | 98.04% | 83.9% | 92.7% | 100% | 92.7% | 94.6% | 4.3 10^-6 cm/s | 14.5 10^-6 cm/s

From PMC8213057, “Targeting ALK2: An Open Science Approach to Developing Therapeutics for the Treatment of Diffuse Intrinsic Pontine Glioma” (Journal of Medicinal Chemistry, 2020)
